Reference: patent US20220194938A1, “NOVEL COMPOUNDS AND PHARMACEUTICAL COMPOSITIONS THEREOF FOR THE TREATMENT OF INFLAMMATORY DISORDERS” (GALAPAGOS NV, priority 2019, published 2022)
Read-outs that look alike come from different tables or passages of the source.

Legend:
[1] = tested on: CL097 triggered IFNα and TNFα release in human whole blood; assay: Ex vivo human IFNα and TNFα release inhibition (whole blood assay, CL097 triggered); type: cell-based; conditions: CL097 2 μg/mL, 3 h 30 min
Text: 4.10.1. Ex Vivo Human IFNα and TNFα Release Inhibition (Whole Blood Assay)
The aim of the assay is to evaluate the activity of compounds of the invention on the activated TLR/IRAK-4 pathway in an ex vivo human whole blood setting. Toll-like receptors (TLRs) are pattern recognition receptors that recognize a wide variety of microbial molecules, called pathogen-associated molecular patterns (PAMPs). Human TLR7 and TLR8 recognize imidazoquinoline compounds (e.g., CL097—CAS n #1026249-18-2) and single stranded RNAs as their natural ligands. Activation of TLRs leads to the production of several cytokines (e.g., IFNα, TNFα, IL-8, IL-6) by the TLR agonist-treated cells, whereas IRAK4 leads to the production of IFNα. Cytokine release is used as readout in this assay and represents a measure for the level of inhibition of the TLR/IRAK-4 pathway by the tested compound. It should be noted that in the context of the complete organism, other sources for these cytokines exist that are not dependent on the TLR/IRAK-4 pathway, such as e.g., macrophages (upon activation of the Fcγ receptor (Yan et al. 2012)) or T cells (upon activation of the T cell receptor (Brehm, Daniels, and Welsh 2005)).
4.10.1.1. Experimental Design
Blood was collected from healthy volunteers into lithium heparin tubes by venipuncture, then gently inverted several times to prevent clotting and incubated for at least 15 min at 37° C. on a rocking mixer shaker. Then, 100 μL of blood was dispensed into polypropylene 96-well microplate and pre-incubated in duplicate with 0.3% DMSO or test compound at different concentrations (from 30 to 0.01 μM, 3-fold dilutions to get 0.3% DMSO at the final) for 15 min at 37° C. After this pre-incubation, blood was triggered with CL097 (2 μg/mL from 1 mg/mL solution in water; InvivoGen, tlr1-c97) for 3 h 30 min at 37° C. Microtubes were centrifuged at 5000×g for 10 min at 4° C. and approximately 40 μL of plasma were collected into a polystyrene 96-well plate. Plasma could be analyzed freshly, within 30 min after triggering, or frozen at −80° C. Finally, the quantification of TNFα and IFNα were performed in the plasma using AlphaLISA Kit for […] according to the manufacturer's instructions and read on the Ensight (PerkinElmer).
A standard curve was created by plotting on log-log the mean absorbance on the y-axis against the concentration on the x-axis and a 4 PL was made through the points. For each blood sample, the IFNα concentrations of the samples were determined from the fit.
Data were then expressed as a percentage of inhibition (PIN) for each replicate using the formula:
With mean IFNα with CL097=mean IFNα concentration of replicate samples triggered with CL097; IFNαsample1=IFNα concentration of sample 1; mean IFNα with vehicle=mean IFNα concentration of replicate samples treated with vehicle.
For each blood sample, the TNFα concentrations of the samples were determined from the fit. Data were then expressed as a percentage of inhibition (PIN) for each replicate using the formula:
With mean TNFα with CL097=mean TNFα concentration of replicate samples triggered with CL097; TNFαsample1=TNFα concentration of sample 1; mean TNFα with vehicle=mean TNFα concentration of replicate samples treated with vehicle.
Curve fitting for pIC50 determination were generated using mean PIN±sem. Graphs and pIC50 calculations were derived using Prism 5.03 software (GraphPad).

[2] = tested on: pooled cryopreserved hepatocytes; assay: Metabolic stability in hepatocytes (human); type: in vitro ADME; conditions: 1 μM test compound
Protocol: 4.6. Metabolic Stability in Hepatocytes
The aim of this assay is to determine the metabolic stability of the compound in hepatocytes (cryopreserved) of different species. Low hepatocyte stability may result in the formation of unwanted metabolites, high clearance, and therefore is not desirable.
The decrease in parent was assessed by measuring the percentage remaining by LC-MS/MS analysis.
A 10 mM stock solution of test compound in DMSO was first diluted in DMSO to 3 mM, and then in modified Krebs-Henseleit buffer (Sigma, K3753) to 5 μM. This compound dilution was added to a suspension of pooled cryopreserved hepatocytes (BioreclamationIVT) at 37° C. under gentle shaking.
Final reaction conditions were: 1 μM of test compound, 0.03% DMSO, 0.5 million viable hepatocytes/mL, and 75 μL incubation volume.
Testosterone (1 μM) and 7-hydroxycoumarin (1 μM) were used, respectively as phase I and phase II metabolic reaction controls.
After 0, 10, 20, 45, 90, 120 and 180 min of incubation, the reaction was terminated with 225 μL of MeCN:MeOH (2:1) containing 100 ng/mL of diclofenac as analytical internal standard. Samples were mixed, centrifuged and the supernatant analyzed by LC-MS/MS.
The instrument responses (ratios of test compound and internal standard peak areas) were referenced to the zero time point samples (considered as 100%) in order to determine the percentage of compound remaining.
Plots of percentage compound remaining are used to determine the intrinsic clearance in the hepatocyte incubations using the following equations:
Scaled Clint[L/h/kg]=Clint[μL/min/10^6 cells]*#(10^6) cells/g liver*60*(1/10^6) Scaled Clint unbound [L/h/kg]=Clint [L/h/kg]/Fu,inc where: fu,inc equals hepatocyte binding, derived from microsomal binding (fu,mic) by following equation: […]

Structure (SMILES) | IC50 ([1]; read-out: IFNα IC50) | IC50 ([1]; read-out: TNFα IC50) | Human (Perc. remaining at 90 min) [2]
[2H]C([2H])([2H])NC(=O)c1cc2nc(CCC(C)(C)O)cn2cc1NC(=O)c1cccc(C(F)(F)F)n1 [Compound 1, 2-(3-hydroxy-3-methyl-butyl)-N-(trideuteriomethyl)-6-[[6-(trifluoromethyl)pyridine-2-carbonyl]amino]imidazo[1,2-a]pyridine-7-carboxamide] | 1000 to 5000 nM | 0.1 to 500 nM | 96.4%
CNC(=O)c1cc2nc(CCC(C)(C)O)cn2cc1NC(=O)c1cccc(C(F)(F)F)n1 [Compound 2, 2-(3-hydroxy-3-methyl-butyl)-N-methyl-6-[[6-(trifluoromethyl)pyridine-2-carbonyl]amino]imidazo[1,2-a]pyridine-7-carboxamide] | 500 to 1000 nM | 0.1 to 500 nM | 99.9%
COc1cc2nc(CCC(C)(C)O)cn2cc1NC(=O)c1cccc(C(F)(F)F)n1 [Compound 3, N-[2-(3-hydroxy-3-methyl-butyl)-7-methoxy-imidazo[1,2-a]pyridin-6-yl]-6-(trifluoromethyl)pyridine-2-carboxamide] | 1000 to 5000 nM | – | 94.55%
COc1cc2nc(CCC(C)(C)O)cn2cc1NC(=O)c1cccn(C)c1=O [Compound 4, N-[2-(3-hydroxy-3-methyl-butyl)-7-methoxy-imidazo[1,2-a]pyridin-6-yl]-1-methyl-2-oxo-pyridine-3-carboxamide] | 0.1 to 500 nM | – | 99.7%
COc1cc2nc(CCC(C)(C)O)cn2cc1NC(=O)c1cccn(C2CC2)c1=O [Compound 5, 1-cyclopropyl-N-[2-(3-hydroxy-3-methyl-butyl)-7-methoxy-imidazo[1,2-a]pyridin-6-yl]-2-oxo-pyridine-3-carboxamide] | 0.1 to 500 nM | – | 95.6%
COc1cc2nc(CCC(C)(C)O)cn2cc1NC(=O)c1cccc(C)n1 [Compound 6, N-[2-(3-hydroxy-3-methyl-butyl)-7-methoxy-imidazo[1,2-a]pyridin-6-yl]-6-methyl-pyridine-2-carboxamide] | 0.1 to 500 nM | – | 30.3%
COc1cc2nc(CCC(C)(C)O)cn2cc1NC(=O)c1cccc(C(F)F)n1 [Compound 7, 6-(difluoromethyl)-N-[2-(3-hydroxy-3-methyl-butyl)-7-methoxy-imidazo[1,2-a]pyridin-6-yl]pyridine-2-carboxamide] | 0.1 to 500 nM | – | 78.4%
COc1cccc(C(=O)Nc2cn3cc(CCC(C)(C)O)nc3cc2OC)n1 [Compound 8, N-[2-(3-hydroxy-3-methyl-butyl)-7-methoxy-imidazo[1,2-a]pyridin-6-yl]-6-methoxy-pyridine-2-carboxamide] | – | – | 78.4%
COc1cc2nc(CCC(C)(C)O)cn2cc1NC(=O)c1cccn(C(F)F)c1=O [Compound 12, 1-(difluoromethyl)-N-[2-(3-hydroxy-3-methyl-butyl)-7-methoxy-imidazo[1,2-a]pyridin-6-yl]-2-oxo-pyridine-3-carboxamide] | 500 to 1000 nM | – | 100.7%
COc1cc2nc(CCC(C)(C)O)cn2cc1NC(=O)c1cccn(CC(F)(F)F)c1=O [Compound 13, N-[2-(3-hydroxy-3-methyl-butyl)-7-methoxy-imidazo[1,2-a]pyridin-6-yl]-2-oxo-1-(2,2,2-trifluoroethyl)pyridine-3-carboxamide] | – | – | 105.95%
COc1cc2nc(CCC(C)(C)O)cn2cc1NC(=O)c1cccn(C2CCC2)c1=O [Compound 18, 1-cyclobutyl-N-[2-(3-hydroxy-3-methyl-butyl)-7-methoxy-imidazo[1,2-a]pyridin-6-yl]-2-oxo-pyridine-3-carboxamide] | – | – | 93.95%
COc1cc2nc(CCC(C)(C)O)cn2cc1NC(=O)c1cccc(C(C)(F)F)n1 [Compound 20, 6-(1,1-difluoroethyl)-N-[2-(3-hydroxy-3-methyl-butyl)-7-methoxy-imidazo[1,2-a]pyridin-6-yl]pyridine-2-carboxamide] | – | – | 75.55%
CCn1cccc(C(=O)Nc2cn3cc(CCC(C)(C)O)nc3cc2OC)c1=O [Compound 23, 1-ethyl-N-[2-(3-hydroxy-3-methyl-butyl)-7-methoxy-imidazo[1,2-a]pyridin-6-yl]-2-oxo-pyridine-3-carboxamide] | – | – | 91.45%
COc1cc2nc(CCS(C)(=O)=O)cn2cc1NC(=O)c1cccc(C(F)(F)F)n1 [Compound 24, N-[7-methoxy-2-(2-methylsulfonylethyl)imidazo[1,2-a]pyridin-6-yl]-6-(trifluoromethyl)pyridine-2-carboxamide] | 500 to 1000 nM | – | 73.6%
COc1cc2nc(CCS(C)(=O)=O)cn2cc1NC(=O)c1cccn(C2CC2)c1=O [Compound 25, 1-cyclopropyl-N-[7-methoxy-2-(2-methylsulfonylethyl)imidazo[1,2-a]pyridin-6-yl]-2-oxo-pyridine-3-carboxamide] | 0.1 to 500 nM | – | 95.3%
CC(C)(O)CCc1cn2cc(NC(=O)c3cccc(C(F)(F)F)n3)c(C(N)=O)cc2n1 [Compound 31, 2-(3-hydroxy-3-methyl-butyl)-6-[[6-(trifluoromethyl)pyridine-2-carbonyl]amino]imidazo[1,2-a]pyridine-7-carboxamide] | 0.1 to 500 nM | 0.1 to 500 nM | 94.9%
CCOc1c(NC(=O)c2cccn(C3CC3)c2=O)cn2cc(CCS(C)(=O)=O)nc2c1F [Compound 39, 1-cyclopropyl-N-[7-ethoxy-8-fluoro-2-(2-methylsulfonylethyl)imidazo[1,2-a]pyridin-6-yl]-2-oxo-pyridine-3-carboxamide] | 500 to 1000 nM | 500 to 1000 nM | –
CCNC(=O)c1cc2nc(CCC(C)(C)O)cn2cc1NC(=O)c1cccc(C(F)(F)F)n1 [Compound 49, N-ethyl-2-(3-hydroxy-3-methylbutyl)-6-(6-(trifluoromethyl)picolinamido)imidazo[1,2-a]pyridine-7-carboxamide] | – | – | 95.9%
